From ChEMBL document CHEMBL3507680, “University of Dundee, Gates Library screen for HepG2 cell viability”

Assay: Human HepG2 cell viability assay in 384 well format
Format: toxicity, cell-based
Design: dose 125 nL, time 70.5 hour; concentration not given beside the values
Conditions: HepG2 cells, read-out: Inhibition

SMILES	cytotoxicity at 70.5 h
CN(C)C(=O)CC1CCOc2ccccc21 (stereo not drawn)	0.971%
Cn1cncc1CN1CCCC1c1cncc(Oc2ccc(Cl)cc2)n1 (stereo not drawn)	8.74%
O=C(c1ccc(F)cc1Cl)N1CCC(Nc2cccnn2)CC1	-7.6%
CCOc1ccnc(N2CCN(C(=O)c3ccncc3)CC2)n1	-9.15%
COCCN1CCC(CNc2cnc3ccccc3n2)CC1	-1.83%
CCn1nc(C)c2nnn(CC(=O)Nc3ccccc3)c(=O)c21	-10.7%
CN(C)CC1(O)CCCN(C(=O)c2ccccc2-n2cncn2)C1 (stereo not drawn)	-3.77%
CCc1ccsc1C(=O)N1CCN(CCN2C(=O)CCC2=O)CC1	-3.69%
CC(=O)NS(=O)(=O)c1ccc2c(c1)N(C)CCC2	-5.49%
O=C(NCc1ccccc1CN1CCCCCC1)Nc1nncs1	-5.79%
Cc1nc[nH]c1CN(Cc1ccccc1F)C1CC(C)(C)NC(C)(C)C1	-2.5%
CC(C)c1nnc2n1CCN(CCCS(=O)(=O)c1ccccc1)C2	-13.8%
Cc1noc([C@@]23CCO[C@@H]2CCN(C(=O)c2cc(C)on2)C3)n1	-3.23%
Cc1cc(C(=O)N(CCN(C)C)Cc2ccc(Cl)cc2)no1	-0.353%
Cc1noc(NC(=O)c2ccc(OC(F)(F)F)cc2)n1	55.7%
CCSc1cc(C(=O)NC2CCN(C(=O)c3ccncc3)CC2)ccn1	-0.0904%
CCCNC(=O)C1(Cc2cc(-c3ccccc3)no2)CCN(C(C)=O)C1 (stereo not drawn)	3.68%
CNc1cc(CCNC(=O)CC(C)C)nc(-c2ccccn2)n1	-7.32%
COc1c(CNC2CCCc3ccccc32)c(C)nn1C (stereo not drawn)	-8%
COc1cccc([C@@H]2CCN(Cc3ccc4ccccc4n3)C[C@H]2O)c1	-8.06%
Cc1ncsc1CN1Cc2cn(C)nc2C(COCC2CC2)C1 (stereo not drawn)	11.6%
Cc1csc(CNC(=O)Nc2cc(C(F)(F)F)c[nH]c2=O)n1	-5.01%
Cc1ccc(C2CSCCN2C(=O)NCc2cccnc2)cc1 (stereo not drawn)	-10.1%

SMILES	cytotoxicity at 70.5 h
CCn1ccnc1CN1CCCN(C(=O)c2cc(Cl)c[nH]2)CC1	-12.8%
Cc1nc(N2CCN(S(C)(=O)=O)CC2)cc(-n2cnc(C)c2C)n1	-3.21%
COCc1ccc(CNc2cncc(-n3cccn3)n2)cc1	-9.14%
CNC(=O)c1nn(C)cc1NC(=O)C(C)n1ncc(Cl)c1C (stereo not drawn)	-6.57%
CCOCCNc1nc(C2CCCC2)nc2c1cnn2C	0.172%
CC(C)[C@H](NC(=O)NC1CCS(=O)(=O)C1)C(=O)Nc1cccnc1 (stereo partly drawn)	9.45%
NC(=O)CC1CCN(C(=O)NCc2cccc(-n3cccn3)c2)CC1	-1.91%
N#Cc1ccc(F)c(CNC(=O)NC(CO)c2ccccc2)c1 (stereo not drawn)	13.7%
Cc1cccc(N2CC3(CCN(S(=O)(=O)C4CC4)C3)C2)n1	-6.18%
Cn1cc(NC(=O)c2cc[nH]n2)cc(Cl)c1=O	-5.18%
CCC(CO)NC(=O)Nc1ccc(OCC(F)(F)F)c(C)c1 (stereo not drawn)	-1.78%
COCCC(=O)N1Cc2[nH]nc(COc3cccnc3)c2C1	-13.5%
COc1ccc2c(c1)CC(C1CCOCC1)N(C(=O)c1cnccn1)C2 (stereo not drawn)	0.645%
N#Cc1cnn(C(=O)COc2ccccc2F)c1N	1.04%
CCC(C)(C)NC(=O)c1nnn(-c2cccc3c2CCN(C)C3)c1C	9.39%
CCCn1nc(-c2nc(C3CC3)no2)ccc1=O	5.03%
CCOCC(O)CN1CCN(C(=O)c2cccc3[nH]ncc23)CC1 (stereo not drawn)	-4.87%
CO[C@@H]1CCN(C(=O)Cc2cccc(F)c2)[C@H]1Cc1cccnc1	-3.88%
COC(=O)c1ccoc1CN(C1CC1)C1CCS(=O)(=O)C1 (stereo not drawn)	-0.821%
O=C1N(Cc2cccnc2)CCC12CCCN(c1ncc(F)cn1)C2 (stereo not drawn)	-3.96%
CCN1C(=O)C2(CCOCC2)c2cc(NC(=O)c3cnccn3)ccc21	1.85%
CCc1ncc2c(n1)CN(C(=O)Cc1cc(OC)cc(OC)c1)C2	-14%
CCN(CC)c1ccc(CNC(=O)c2ccccn2)cn1	10.8%

SMILES	cytotoxicity at 70.5 h
CCN(C)C(C(=O)Nc1ccc2c(c1)CCC(=O)N2)c1ccccc1 (stereo not drawn)	-15.5%
Nc1nnc(Cn2nnc(-c3ccccc3F)n2)s1	-12.8%
CSc1nccc(N2CCC(NCc3nc(C)cc(C)n3)CC2)n1	1.01%
COCCN(Cc1ccccn1)C(=O)CC1OCCc2ccsc21 (stereo not drawn)	-1.83%
Fc1ccc(C2(NCc3ccccc3)CCOCC2)cc1	-3.51%
CN(C)C(=O)CCS(=O)(=O)Cc1ccn(-c2cccc(F)c2)n1	4.33%
O=C(c1cc(Cl)c2c(c1)OCO2)N1CCCC(n2cncn2)C1 (stereo not drawn)	-4.61%
COc1ccc2c(c1)OCC(CNC(=O)c1ccc(=O)n(C)c1)C2 (stereo not drawn)	-10%
COCC1c2nnn(CC3CC3)c2CCN1C(=O)c1cccc(F)c1 (stereo not drawn)	-6.77%
Cc1ncsc1CNc1ccn(Cc2ccccc2)n1	6.63%
CN1CCN(C(=O)c2cncc(CC3CCCN(C)C3)c2)CC1 (stereo not drawn)	24.9%
Cc1nc(-c2cccc(C(=O)O)c2)cc(C2CCN(C(C)C)C2)n1 (stereo not drawn)	-2.07%
c1ccc(CNc2cc(C3CCCNC3)ccn2)nc1 (stereo not drawn)	20.2%
CS(=O)(=O)c1cncnc1C1CCCN(C(=O)NCc2ccccc2)C1 (stereo not drawn)	-6.21%
Cc1ccc(-c2cn[nH]c2C2CCCN(c3ncccn3)C2)cc1 (stereo not drawn)	22.7%
Cc1cccc(CN2CCN(C(=O)c3cccnc3O)CC2)c1	-4.88%
CN(c1ccc(-c2nc(C3CC3)no2)cn1)C1CCOCC1	-3.42%
CCN(C(=O)CCOC)C(c1ccc(Cl)cc1)c1ccccn1 (stereo not drawn)	-6.55%
NC(=O)C(NC(=O)c1ccc(NC2CC2)nc1)c1ccccc1 (stereo not drawn)	-5.49%
Cc1cnn(CCNCC(=O)N2CCN(c3ccccc3)CC2)c1	21.4%
CCOc1cccc(CN(Cc2cnn(C)c2)CC(C)C)c1O	7.39%
CNC[C@H]1CC[C@H](c2cc(CN(C)C(=O)c3cnccn3)n(C)n2)CC1	-8.17%
CC(C)c1cnc(CN(C)C2CCN(CCn3cc(C#N)cn3)C2)o1 (stereo not drawn)	-2.83%

SMILES	cytotoxicity at 70.5 h
Cc1nc(C)n(C2CCCN(C(=O)c3cn4c(C)cccc4n3)C2)n1 (stereo not drawn)	19.8%
Nc1nc(CN2CCCC(Cn3cncn3)C2)nc2ccccc12 (stereo not drawn)	1.03%
CCCc1nnc(N2CCC3(CC2)CN(C)C(=O)O3)o1	2.82%
Cc1cc(C)n(C2CCCN(C(=O)Cc3cn4ccsc4n3)C2)n1 (stereo not drawn)	-13.1%
CS(=O)(=O)CCC(=O)Nc1nccn1Cc1ccccc1Cl	0.444%
COCCOc1ccc(NC(=O)C2CC(=O)N(C(C)C)C2)cn1 (stereo not drawn)	-4.64%
COc1ccc2c(c1)CN(CC1CC1)C(=O)CCN2CC(C)(C)O	0.185%
COc1c(C)cnc(CN(C)C(=O)Nc2ccc3c(c2)CCO3)c1C	19%
CCOc1cc(F)ccc1NC(=O)N(C(C)CS(C)(=O)=O)C1CC1 (stereo not drawn)	-4.36%
Cn1ccnc1-c1ccc(NC[C@H]2CCc3ccccc3O2)nn1	18%
O=C(CCO)N1CC[C@@H]2CN(C(=O)c3ccco3)CCO[C@@H]2C1	-4.78%
Cn1nc(C2CCNCC2)c2c(C(=O)NC3CC3)cc(C3CC3)nc21	15%
CSc1ncccc1C(=O)NCC(c1ccco1)N(C)C (stereo not drawn)	4.37%
Cc1cc(C)n(CC(C)CNC(=O)NCc2c(C)cc(C)[nH]c2=O)n1 (stereo not drawn)	-10.1%
Cc1cc(C)nc(C2CCN(C(=O)c3cncnc3C)C2)n1 (stereo not drawn)	12.9%
CC1CCCCN1C(=O)c1nc2c(n1C(C)C)CCN(C)C2 (stereo not drawn)	-14%
CC(C)(C)C(=O)N1CCC(c2noc(C3CCC(=O)N3)n2)CC1 (stereo not drawn)	-6.7%
Cn1c(CCC(=O)N2CCCC3(CC2)CNC(=O)O3)nc2cccnc21 (stereo not drawn)	44%
COCCC(=O)N1CCC2(CCN(Cc3cccc(F)c3)CC2)CC1	-5.26%
Cc1nc(NC2CC2)c2c(n1)c(C)nn2C	-18.4%
CCc1nc(CN2CCN(C(C)c3nc(C4CC4)no3)CC2)no1 (stereo not drawn)	-10.3%
c1cnn(Cc2nnc3n2CCCN(Cc2ccsc2)C3)c1	4.58%
CN(C)C1CCN(C(=O)c2ccnn2-c2ccc3ccccn23)CC1	-5.01%

SMILES	cytotoxicity at 70.5 h
O=C(NCC1CCS(=O)(=O)C1)c1sccc1-c1ccc(F)cc1 (stereo not drawn)	8.07%
CC(C)NC(=O)[C@H]1CCS(=O)(=O)[C@@H]2CN(c3ncccn3)C[C@H]12	-6.18%
O=C(O)c1cn(-c2ccccn2)c(=O)c2ccccc12	-11.1%
CCN1CCN(C(=O)C2CC(=O)N(c3cnn(C(C)C)c3)C2)CC1 (stereo not drawn)	-1.53%
COc1ccccc1CN1C[C@@H]2CN(Cc3cccnc3)CCO[C@@H]2C1	12.8%
CCOc1ccc(C(=O)N2CCC(Oc3ccccc3)(C(=O)O)CC2)o1	-3.49%
CCC[C@H]1CN(C2CCOCC2)C[C@@H]1NC(=O)CCn1ccnc1C	3.94%
CCc1ccc(C(=O)NCc2ccnc(C)n2)cc1	-8.72%
COc1cc(-c2cccc3c2OC(CN)C3)cc(OC)c1OC (stereo not drawn)	-1.4%
CN1CCN([C@@H]2CN(C(=O)c3ccsc3)[C@@H]3CCCO[C@H]23)CC1	-2.84%
Cc1ccc(C(=O)O)cc1S(=O)(=O)N(CC(C)O)c1ccccc1 (stereo not drawn)	-16.2%
Cc1n[nH]c(C)c1-c1cnc(CC2CCN(C(C)C)CC2)cn1	-2.78%
CC(CNC(=O)c1cc(-n2cccn2)ccn1)Cn1ccnc1 (stereo not drawn)	-0.0471%
O=C1Nc2ccccc2CN(CC2CCCC2)C12CCNC2 (stereo not drawn)	-2.12%
CCOCC(O)CN1CCN(C(=O)c2ccsc2)CC1 (stereo not drawn)	17.1%
Cc1cccc(CN2C(=O)CC[C@@H]3[C@H]2CCN3Cc2nccn2C)n1	-9.05%
Cc1ccc2[nH]c(CNC(=O)C3CC4(CCNCC4)CN3C)nc2c1C (stereo not drawn)	50.4%
CC(C)Oc1cccc(CNC(=O)NC2(CO)CCCC2)c1	-11.2%
Nc1nc(Cn2ccnc2-c2cc(CN3CCCC3)cs2)cs1	3.17%
CCN(CC)CCN1CC[C@H]2OCC[C@@]2(C(=O)N2CCOCC2)C1	-14.8%
CN1CCC(C)(CNC(=O)c2ccc(SCc3cccnc3)cc2)CC1	-9.14%
